We go through four compounds from paper PMC8889123 (International journal for parasitology, 2019).

One may read the IC50 as the concentration that inhibits the measured activity by half. Lower therefore signals higher potency.

This assay addresses T1, Ser/Thr protein phosphatase 5 (PbPP5) (Plasmodium berghei, UniProt A0A509AMH5).
T1 sequence (A0A509AMH5 407-711): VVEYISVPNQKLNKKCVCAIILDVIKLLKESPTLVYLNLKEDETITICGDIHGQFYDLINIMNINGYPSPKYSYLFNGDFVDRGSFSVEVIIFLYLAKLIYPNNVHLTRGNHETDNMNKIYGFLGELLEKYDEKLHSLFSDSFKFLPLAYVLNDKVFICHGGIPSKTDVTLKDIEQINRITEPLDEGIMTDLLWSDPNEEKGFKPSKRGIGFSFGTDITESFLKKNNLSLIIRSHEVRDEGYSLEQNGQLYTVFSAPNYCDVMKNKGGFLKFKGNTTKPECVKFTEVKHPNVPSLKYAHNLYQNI
Type of assay: biochemical.
Consider `C=C1[C@@H](O)[C@@H]2O[C@]3(CC[C@H](/C=C/[C@@H](C)[C@@H]4CC(C)=C[C@@]5(O[C@H](C[C@@](C)(O)C(=O)O)CC[C@H]5O)O4)O3)CC[C@H]2O[C@@H]1[C@@H](O)C[C@H](C)[C@H]1O[C@@]2(CCCCO2)CC[C@H]1C` [okadaic acid], for which the IC50 was determined as 1.3 nM.

Consider `C[C@]1(C(=O)O)[C@@H]2CC[C@@H](O2)[C@@]1(C)C(=O)O` [cantharidic acid], for which it took 122 nM to reach half-maximal inhibition (IC50).

As for `O=C(O)[C@@H]1[C@H](C(=O)O)[C@H]2CC[C@@H]1O2` [endothall], the IC50 stood at 365 nM.

With `C[C@@]12C(=O)OC(=O)[C@]1(C)[C@H]1CC[C@@H]2O1` [cantharidin], the concentration for half-maximal inhibition (IC50) came to 74.3 nM.
